Results as given in patent publication US11395857B2, “Radiolabeled melanocortin 1 receptor-specific alpha-melanocyte-stimulating hormone analogues for imaging or therapy” (PROVINCIAL HEALTH SERVICES AUTHORITY, priority 2018, dated 2022).
Like-named read-outs stand apart in the source and are kept apart here.

How the values were obtained:
[1] = Biodistribution of 177Lu-labeled αMSH analogues in mice bearing B16F10 mouse melanoma; format: in vivo, C57BL/6J mice; conditions: mouse, iv, total radioactivity, C57BL/6J mice, B16F10 melanoma
Procedure: (§1) The B16-F10 mouse melanoma cells were cultured and inoculated in mice as described in Example 1.
(§2) For biodistribution studies, approximately 1-2 MBq of ^177Lu-labeled αMSH analogues via tail vein under anesthesia. At 1, 4, 24, and 120 h p.i., the mice were euthanized by CO2 inhalation. Organs/tissues were harvested and the radioactivity was measured as described in Example 1.

B16F10 mouse melanoma = assay: as above; format: in vivo, C57BL/6J mice; conditions: C57BL/6J mice, B16F10 melanoma
Procedure: as §1, §2

In the case of `CCCC[C@H](NC(=O)CN1CCC(NC(=O)CN2CCN(CC(=O)O)CCN(CC(=O)O)CCN(CC(=O)O)CC2)CC1)C(=O)N[C@H]1CC(=O)NCCCC[C@@H](C(N)=O)N(C)C(=O)[C@H](Cc2c[nH]c3ccccc23)N(C)C(=O)[C@H](CCCNC(=N)N)N(C)C(=O)[C@@H](Cc2ccccc2)NC(=O)[C@H](Cc2c[nH]cn2)N(C)C1=O` [^177Lu-labeled CCZ01099, metal not drawn], the tissue uptake at 1 h ([1]; male, seminal glands, 1 h p.i., read-out: Biodistribution, Seminal glands) is reported as 0.06 ± 0.02 %ID/g, the tissue uptake at 4 h ([1]; male, seminal glands, 4 h p.i., read-out: Biodistribution, Seminal glands) is reported as 0.02 %ID/g and the tissue uptake at 24 h ([1]; male, seminal glands, 24 h p.i., read-out: Biodistribution, Seminal glands) is reported as 0.01 %ID/g. The tissue uptake at 1 h ([1]; male, testes, 1 h p.i., read-out: Biodistribution, Testes) was 0.13 ± 0.02 %ID/g, the tissue uptake at 4 h ([1]; male, testes, 4 h p.i., read-out: Biodistribution, Testes) was 0.03 %ID/g and the tissue uptake at 24 h ([1]; male, testes, 24 h p.i., read-out: Biodistribution, Testes) was 0.03 %ID/g. For the same compound, the tissue uptake at 120 h ([1]; male, testes, 120 h p.i., read-out: Biodistribution, Testes) was 0.02 ± 0.01 %ID/g, the tissue uptake at 1 h ([1]; adrenal glands, 1 h p.i., read-out: Biodistribution, Adrenal glands) was 0.39 ± 0.13 %ID/g and the tissue uptake at 4 h ([1]; adrenal glands, 4 h p.i., read-out: Biodistribution, Adrenal glands) was 0.19 ± 0.06 %ID/g. The tissue uptake at 24 h ([1]; adrenal glands, 24 h p.i., read-out: Biodistribution, Adrenal glands) was 0.1 ± 0.04 %ID/g, the tissue uptake at 120 h ([1]; adrenal glands, 120 h p.i., read-out: Biodistribution, Adrenal glands) was 0.03 ± 0.03 %ID/g and the tissue uptake at 1 h ([1]; blood, 1 h p.i., read-out: Biodistribution, Blood) was 0.48 ± 0.22 %ID/g. The tissue uptake at 4 h ([1]; blood, 4 h p.i., read-out: Biodistribution, Blood) was 0.05 ± 0.01 %ID/g, the tissue uptake at 24 h ([1]; blood, 24 h p.i., read-out: Biodistribution, Blood) was 0.01 %ID/g and the tissue uptake at 1 h ([1]; bone, 1 h p.i., read-out: Biodistribution, Bone) was 0.13 ± 0.03 %ID/g. It also gave a tissue uptake at 4 h ([1]; bone, 4 h p.i., read-out: Biodistribution, Bone) of 0.06 ± 0.02 %ID/g, a tissue uptake at 24 h ([1]; bone, 24 h p.i., read-out: Biodistribution, Bone) of 0.04 ± 0.01 %ID/g and a tissue uptake at 120 h ([1]; bone, 120 h p.i., read-out: Biodistribution, Bone) of 0.02 ± 0.01 %ID/g. The tissue uptake at 1 h ([1]; brain, 1 h p.i., read-out: Biodistribution, Brain) was 0.02 %ID/g, the tissue uptake at 4 h ([1]; brain, 4 h p.i., read-out: Biodistribution, Brain) was 0.01 %ID/g and the tissue uptake at 1 h ([1]; fat, 1 h p.i., read-out: Biodistribution, Fat) was 0.06 ± 0.02 %ID/g. For the same compound, the tissue uptake at 4 h ([1]; fat, 4 h p.i., read-out: Biodistribution, Fat) was 0.01 %ID/g, the tissue uptake at 24 h ([1]; fat, 24 h p.i., read-out: Biodistribution, Fat) was 0.01 %ID/g and the tissue uptake at 120 h ([1]; fat, 120 h p.i., read-out: Biodistribution, Fat) was 0.01 %ID/g. For the same compound, the tissue uptake at 1 h ([1]; heart, 1 h p.i., read-out: Biodistribution, Heart) was 0.17 ± 0.06 %ID/g, the tissue uptake at 4 h ([1]; heart, 4 h p.i., read-out: Biodistribution, Heart) was 0.04 ± 0.01 %ID/g and the tissue uptake at 24 h ([1]; heart, 24 h p.i., read-out: Biodistribution, Heart) was 0.03 %ID/g. For the same compound, the tissue uptake at 120 h ([1]; heart, 120 h p.i., read-out: Biodistribution, Heart) was 0.02 %ID/g, the tissue uptake at 1 h ([1]; intestine, 1 h p.i., read-out: Biodistribution, Intestine) was 0.25 ± 0.03 %ID/g and the tissue uptake at 4 h ([1]; intestine, 4 h p.i., read-out: Biodistribution, Intestine) was 0.12 ± 0.06 %ID/g. For the same compound, the tissue uptake at 24 h ([1]; intestine, 24 h p.i., read-out: Biodistribution, Intestine) was 0.23 ± 0.28 %ID/g, the tissue uptake at 120 h ([1]; intestine, 120 h p.i., read-out: Biodistribution, Intestine) was 0.12 ± 0.16 %ID/g and the tissue uptake at 1 h ([1]; kidneys, 1 h p.i., read-out: Biodistribution, Kidneys) was 4.15 ± 0.99 %ID/g. For the same compound, the tissue uptake at 4 h ([1]; kidneys, 4 h p.i., read-out: Biodistribution, Kidneys) was 4.32 ± 2.06 %ID/g, the tissue uptake at 24 h ([1]; kidneys, 24 h p.i., read-out: Biodistribution, Kidneys) was 1.61 ± 0.29 %ID/g and the tissue uptake at 120 h ([1]; kidneys, 120 h p.i., read-out: Biodistribution, Kidneys) was 0.5 ± 0.02 %ID/g. It also gave a tissue uptake at 1 h ([1]; liver, 1 h p.i., read-out: Biodistribution, Liver) of 0.41 ± 0.11 %ID/g, a tissue uptake at 4 h ([1]; liver, 4 h p.i., read-out: Biodistribution, Liver) of 0.34 ± 0.1 %ID/g and a tissue uptake at 24 h ([1]; liver, 24 h p.i., read-out: Biodistribution, Liver) of 0.32 ± 0.13 %ID/g. For the same compound, the tissue uptake at 120 h ([1]; liver, 120 h p.i., read-out: Biodistribution, Liver) was 0.19 ± 0.02 %ID/g, the tissue uptake at 1 h ([1]; lungs, 1 h p.i., read-out: Biodistribution, Lungs) was 0.54 ± 0.2 %ID/g and the tissue uptake at 4 h ([1]; lungs, 4 h p.i., read-out: Biodistribution, Lungs) was 0.17 ± 0.06 %ID/g. For the same compound, the tissue uptake at 24 h ([1]; lungs, 24 h p.i., read-out: Biodistribution, Lungs) was 0.07 ± 0.02 %ID/g, the tissue uptake at 120 h ([1]; lungs, 120 h p.i., read-out: Biodistribution, Lungs) was 0.04 ± 0.01 %ID/g and the tissue uptake at 1 h ([1]; muscle, 1 h p.i., read-out: Biodistribution, Muscle) was 0.1 ± 0.04 %ID/g. For the same compound, the tissue uptake at 4 h ([1]; muscle, 4 h p.i., read-out: Biodistribution, Muscle) was 0.02 %ID/g, the tissue uptake at 24 h ([1]; muscle, 24 h p.i., read-out: Biodistribution, Muscle) was 0.01 %ID/g and the tissue uptake at 120 h ([1]; muscle, 120 h p.i., read-out: Biodistribution, Muscle) was 0.01 %ID/g. The tissue uptake at 1 h ([1]; pancreas, 1 h p.i., read-out: Biodistribution, Pancreas) was 0.13 ± 0.05 %ID/g, the tissue uptake at 4 h ([1]; pancreas, 4 h p.i., read-out: Biodistribution, Pancreas) was 0.03 ± 0.01 %ID/g and the tissue uptake at 24 h ([1]; pancreas, 24 h p.i., read-out: Biodistribution, Pancreas) was 0.03 %ID/g. It also gave a tissue uptake at 120 h ([1]; pancreas, 120 h p.i., read-out: Biodistribution, Pancreas) of 0.02 %ID/g, a tissue uptake at 1 h ([1]; spleen, 1 h p.i., read-out: Biodistribution, Spleen) of 0.24 ± 0.08 %ID/g and a tissue uptake at 4 h ([1]; spleen, 4 h p.i., read-out: Biodistribution, Spleen) of 0.13 ± 0.04 %ID/g. It also gave a tissue uptake at 24 h ([1]; spleen, 24 h p.i., read-out: Biodistribution, Spleen) of 0.12 ± 0.02 %ID/g, a tissue uptake at 120 h ([1]; spleen, 120 h p.i., read-out: Biodistribution, Spleen) of 0.07 ± 0.01 %ID/g and a tissue uptake at 1 h ([1]; stomach, 1 h p.i., read-out: Biodistribution, Stomach) of 0.13 ± 0.02 %ID/g. It also gave a tissue uptake at 4 h ([1]; stomach, 4 h p.i., read-out: Biodistribution, Stomach) of 0.59 ± 1.14 %ID/g, a tissue uptake at 24 h ([1]; stomach, 24 h p.i., read-out: Biodistribution, Stomach) of 0.53 ± 0.48 %ID/g and a tissue uptake at 120 h ([1]; stomach, 120 h p.i., read-out: Biodistribution, Stomach) of 0.12 ± 0.16 %ID/g. The tissue uptake at 1 h ([1]; thyroid, 1 h p.i., read-out: Biodistribution, Thyroid) was 0.22 ± 0.09 %ID/g, the tissue uptake at 4 h ([1]; thyroid, 4 h p.i., read-out: Biodistribution, Thyroid) was 0.07 ± 0.01 %ID/g and the tissue uptake at 24 h ([1]; thyroid, 24 h p.i., read-out: Biodistribution, Thyroid) was 0.06 ± 0.01 %ID/g. It also gave a tissue uptake at 120 h ([1]; thyroid, 120 h p.i., read-out: Biodistribution, Thyroid) of 0.05 ± 0.01 %ID/g, an excreta dose per gram or mL at 1 h ([1]; urine, 1 h p.i.) of 227 ± 115 %ID/g and an excreta dose per gram or mL at 4 h ([1]; urine, 4 h p.i.) of 49.1 ± 39.7 %ID/g. For the same compound, the excreta dose per gram or mL at 24 h ([1]; urine, 24 h p.i.) was 0.46 ± 0.31 %ID/g, the excreta dose per gram or mL at 120 h ([1]; urine, 120 h p.i.) was 0.09 ± 0.06 %ID/g and the “Biodistribution, B16F10 tumour” value (B16F10 mouse melanoma; 1 h p.i.) was 4.49 ± 1.89 % ID/g. For the same compound, the “Biodistribution, B16F10 tumour” value (B16F10 mouse melanoma; 4 h p.i.) was 4.42 ± 0.64 % ID/g, the “Biodistribution, B16F10 tumour” value (B16F10 mouse melanoma; 24 h p.i.) was 2.04 ± 0.46 % ID/g and the “Biodistribution, Brain” value (B16F10 mouse melanoma; 24 h p.i.) was 0.00 ± 0.00 % ID/g. The “Biodistribution, B16F10 tumour” value (B16F10 mouse melanoma; 120 h p.i.) was 0.49 ± 0.30 % ID/g, the “Biodistribution, Blood” value (B16F10 mouse melanoma; 120 h p.i.) was 0.00 ± 0.00 % ID/g and the “Biodistribution, Brain” value (B16F10 mouse melanoma; 120 h p.i.) was 0.00 ± 0.00 % ID/g. For the same compound, the “Biodistribution, Seminal glands” value (B16F10 mouse melanoma; 120 h p.i.) was 0.00 ± 0.00 % ID/g.
